Laboratory results reported in patent US8247556B2, “Method for preparing 6-substituted-7-aza-indoles” (Amgen Inc., priority 2005, dated 2012).

How the values were obtained:
[1] = system: VEGF-stimulated HUVEC proliferation (Human Umbilical Vein Endothelial cells); assay: HUVEC Proliferation Assay; assay type: cell-based; details: VEGF 50 ng/mL, 72 h, CyQuant fluorescent dye, read-out: inhibited VEGF-stimulated HUVEC proliferation at a level
Method: Human Umbilical Vein Endothelial cells are purchased from Clonetics, Inc., as cryopreserved cells harvested from a pool of donors. These cells, at passage 1, are thawed and expanded in EBM-2 complete medium, until passage 2 or 3. The cells are trypsinized, washed in DMEM+10% FBS+antibiotics, and spun at 1000 rpm for 10 min. Prior to centrifugation of the cells, a small amount is collected for a cell count. After centrifugation, the medium is discarded, and the cells are resuspended in the appropriate volume of DMEM+10% FBS+antibiotics to achieve a concentration of 3×10^5 cells/mL. Another cell count is performed to confirm the cell concentration. The cells are diluted to 3×10^4 cells/mL in DMEM+10% FBS+antibiotics, and 100 μL of cells are added to a 96-well plate. The cells are incubated at 37° C. for 22 h.
Prior to the completion of the incubation period, compound dilutions are prepared. Five-point, five-fold serial dilutions are prepared in DMSO, at concentrations 400-fold greater than the final concentrations desired. 2.5 μL of each compound dilution are diluted further in a total of 1 mL DMEM+10% FBS+antibiotics (400× dilution). Medium containing 0.25% DMSO is also prepared for the 0 μM compound sample. At the 22 h time point, the medium is removed from the cells, and 100 μL of each compound dilution is added. The cells are incubated at 37° C. for 2-3 h.
During the compound pre-incubation period, the growth factors are diluted to the appropriate concentrations. Solutions of DMEM+10% FBS+antibiotics, containing either VEGF or bFGF at the following concentrations: 50, 10, 2, 0.4, 0.08, and 0 ng/mL are prepared. For the compound-treated cells, solutions of VEGF at 550 ng/mL or bFGF at 220 ng/mL for 50 ng/mL or 20 ng/mL final concentrations, respectively, are prepared since 10 μL of each will be added to the cells (110 μL final volume). At the appropriate time after adding the compounds, the growth factors are added. VEGF is added to one set of plates, while bFGF is added to another set of plates. For the growth factor control curves, the media on wells B4-G6 of plates 1 and 2 are replaced with media containing VEGF or bFGF at the varying concentrations (50-0 ng/mL). The cells are incubated at 37° C. for an additional 72 h.
At the completion of the 72 h incubation period, the medium is removed, and the cells are washed twice with PBS. After the second wash with PBS, the plates are tapped gently to remove excess PBS, and the cells are placed at −70° C. for at least 30 min. The cells are thawed and analyzed using the CyQuant fluorescent dye (Molecular Probes C-7026), following the manufacturer's recommendations. The plates are read on a Victor/Wallac 1420 workstation at 485 nm/530 nm (excitation/emission). Raw data are collected and analyzed using a 4-parameter fit equation in XLFit. IC50 values are then determined.

CYP 3A4 = molecular target: T1, CYP 3A4 (Homo sapiens, UniProt P08684); assay: Human Liver Microsome CYP 3A4 Inhibition; assay type: in vitro ADME; details: human liver microsomes, midazolam substrate; read-out: inhibited CYP3A4 microsomes, IC50
T1 construct: followed by 222.2 ml of 20 mg/mL HLM (BD Gentest); tissue BD Gentest; host or cells: human liver microsomes
T1 sequence (P08684 whole entry): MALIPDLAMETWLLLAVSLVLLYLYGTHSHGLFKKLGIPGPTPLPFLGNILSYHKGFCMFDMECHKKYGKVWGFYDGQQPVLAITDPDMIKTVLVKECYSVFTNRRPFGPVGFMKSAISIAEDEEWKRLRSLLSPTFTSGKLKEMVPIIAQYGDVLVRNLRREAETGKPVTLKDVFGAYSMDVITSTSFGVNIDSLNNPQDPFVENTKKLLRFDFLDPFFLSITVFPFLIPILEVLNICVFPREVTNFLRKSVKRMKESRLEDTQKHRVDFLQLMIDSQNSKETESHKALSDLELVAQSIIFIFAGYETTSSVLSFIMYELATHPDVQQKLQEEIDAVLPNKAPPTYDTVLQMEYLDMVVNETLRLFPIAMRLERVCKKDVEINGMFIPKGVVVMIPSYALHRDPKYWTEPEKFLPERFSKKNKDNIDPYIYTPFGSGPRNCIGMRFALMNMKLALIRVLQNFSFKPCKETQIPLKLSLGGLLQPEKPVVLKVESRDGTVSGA
Method: Determining the IC-50 for Human Liver Microsome CYP 3A4 Inhibition
Postassium Phosphate Buffer pH 7.4 (39.667 mL) is chilled in an ice bath and added to a 50 ml plastic tube. A 2 mM midazolam solution is prepared. 111.1 ul of 2 mM midazolam is added to the buffer followed by 222.2 ml of 20 mg/mL HLM (BD Gentest). The incubation mixture was gently inverted and equilibrated at 37° C. for 5 min. A stock inhibitor solution is prepared, such as in DMSO. Incubation mixture (801 ul) is added into 96-well, 1.2 mL plastic tubes. Inhibitor is added at various concentrations (e.g. 30 uM to 120 nM). The tubes are sealed and mix by inverting 5 times gently. The incubation mixture containing inhibitor (270 uL) is added by aliquot into wells of a 1 mL, 96-well block (duplicate). The block is placed into a 37° C. water bath and equilibrated for 3 min. 10 mM NADPH (30 ml) is added to all samples. After 5 minutes, the reactions are stopped by adding 300 ml of Quench Solution [0.1% TFA in CH3CN]. 1′-OH-Midazolam-d313C (2 mg/mL 30 uL) is added, the block is gently vortexed then centrifuged at 3000 rpm for 10 minutes at 4° C. 50 μL of supernatant from all samples is added by aliquot into a shorter, 96-well block. The aliquoted supernatants are pooled with other assay(s) and HPLC Grade Water (50 ul) is added to all samples. After covering and shaking by vortex gently for 2 minutes, the solutions were analyzed by LC-MS (API 3000,5% MeOH w/0.1% AcOH to 95% MeOH w/0.1% AcOH). 37 nM ketoconazole is used as a control.

CYP 2D6 = molecular target: T2, CYP 2D6 (Homo sapiens, UniProt P10635); assay: Human Liver Microsome CYP 2D6 Inhibition; assay type: in vitro ADME; details: human liver microsomes, bufuralol substrate; read-out: inhibited CYP2D6 microsomes, IC50
T2 construct: followed by 555.6 ml of 20 mg/mL HLM (BD Gentest); tissue BD Gentest; host or cells: human liver microsomes
T2 sequence (P10635 whole entry): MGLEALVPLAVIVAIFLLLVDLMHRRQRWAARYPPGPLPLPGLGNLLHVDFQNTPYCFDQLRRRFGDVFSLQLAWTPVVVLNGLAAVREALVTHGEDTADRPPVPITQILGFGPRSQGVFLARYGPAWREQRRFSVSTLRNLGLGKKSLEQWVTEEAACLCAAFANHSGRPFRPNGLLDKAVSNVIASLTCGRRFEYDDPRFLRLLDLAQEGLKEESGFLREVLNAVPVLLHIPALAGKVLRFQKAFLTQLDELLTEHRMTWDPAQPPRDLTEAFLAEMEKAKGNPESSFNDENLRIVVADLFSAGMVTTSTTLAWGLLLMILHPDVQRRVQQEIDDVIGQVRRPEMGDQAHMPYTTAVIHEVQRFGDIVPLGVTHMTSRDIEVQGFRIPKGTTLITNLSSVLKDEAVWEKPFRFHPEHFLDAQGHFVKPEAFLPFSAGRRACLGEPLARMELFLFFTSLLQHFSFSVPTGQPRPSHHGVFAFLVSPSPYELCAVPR
Method: Determining the IC-50 for Human Liver Microsome CYP 2D6 Inhibition
Postassium Phosphate Buffer pH 7.4 (39.333 mL) is chilled in an ice bath and added to a 50 ml plastic tube. A 3.2 mM bufuralol solution is prepared. 111.1 ul of 3.2 mM bufuralol is added to the buffer followed by 555.6 ml of 20 mg/mL HLM (BD Gentest). The incubation mixture was gently inverted and equilibrated at 37° C. for 5 min. A stock inhibitor solution is prepared, such as in DMSO. Incubation mixture (801 ul) is added into 96-well, 1.2 mL plastic tubes. Inhibitor is added at various concentrations (e.g. 30 μM to […]). The tubes are sealed and mix by inverting 5 times gently. The incubation mixture containing inhibitor (270 μL) is added by aliquot into wells of a 1 mL, 96-well block (duplicate). The block is placed into a 37° C. water bath and equilibrated for 3 minutes. 10 mM NADPH (30 ml) is added to all samples. After 5 min, the reactions are stopped by adding 300 ml of Quench Solution [0.1% TFA in CH3CN]. 1′-OH-bufuralol-d9 (750 ng/mL 30 μL) is added, the block is gently vortexed then centrifuged at 3000 rpm for 10 min at 4° C. 50 μL of supernatant from all samples is added by aliquot into a shorter, 96-well block. The aliquoted supernatants are pooled with other assay(s) and HPLC Grade Water (50 μL) is added to all samples. After covering and shaking by vortex gently for 2 minutes, the solutions were analyzed by LC-MS (API 3000, 5% MeOH w/0.1% AcOH to 95% MeOH w/0.1% AcOH). 500 nM quinidine is used as a control.

Compound | IC50 (CYP 3A4) [µM] | IC50 (CYP 2D6) [µM] | IC50 [1] [µM]
CC(=O)N1CC(C)(C)c2ccc(NC(=O)c3cccnc3NCc3c[nH]c4ncccc34)cc21 [Example 39, N-(1-acetyl-3,3-dimethyl-2,3-dihydro-1H-indol-6-yl)-2-[(1H-pyrrolo[2,3-b]pyridin-3-ylmethyl)amino]nicotinamide] | > 20 | – | < 0.5
CN1CCC[C@@H]1COc1cc(NC(=O)c2cccnc2NCc2ccnc3[nH]ccc23)ccc1C(F)(F)F [Example 68, N-(3-((((2R)-1-methyl-2-pyrrolidinyl)methyl)oxy)-4-(trifluoromethyl)phenyl)-2-((1H-pyrrolo[2,3-b]pyridin-4-ylmethyl)amino)-3-pyridinecarboxamide] | > 20 | – | < 0.5
CC1(C)CN(C(=O)CN)c2cc(NC(=O)c3cccnc3NCc3ccnc4[nH]ccc34)ccc21 [Example 21, N-(1-Glycyl-3,3-dimethyl-2,3-dihydro-1H-indol-6-yl)-2-[(1H-pyrrolo[2,3-b]pyridin-4-ylmethyl)amino]nicotinamide] | – | > 20 | < 0.5
O=C(Nc1ccc(C(F)(F)F)cc1)c1cc(F)cnc1NCc1ccnc2[nH]ccc12 [Example 78, 5-fluoro-2-((1H-pyrrolo[2,3-b]pyridin-4-ylmethyl)amino)-N-(4-(trifluoromethyl)phenyl)-3-pyridinecarboxamide] | > 20 | – | –
CC1(C)CN(S(C)(=O)=O)c2cc(NC(=O)c3cccnc3NCc3ccnc4[nH]ccc34)ccc21 [Example 61, N-(1-Methanesulfonyl-3,3-dimethyl-2,3-dihydro-1H-indol-6-yl)-2-[(1H-pyrrolo[2,3-b]pyridin-4-ylmethyl)-amino]-nicotinamide] | – | > 20 | < 0.5
CC1(C)CCNc2cc(NC(=O)c3cccnc3NCc3ccnc4c3CCN4)ccc21 [Example 31, 2-[(2,3-Dihydro-1H-pyrrolo[2,3-b]pyridin-4-ylmethyl)amino]-N-(4,4-dimethyl-1,2,3,4-tetrahydroquinolin-7-yl)nicotinamide] | – | > 20 | < 0.5
CC1(C)CNCc2cc(NC(=O)c3cccnc3NCc3c[nH]c4ncccc34)ccc21 [Example 38, N-(4,4-Dimethyl-1,2,3,4-tetrahydroisoquinolin-7-yl)-2-[(1H-pyrrolo[2,3-b]pyridin-3-ylmethyl)amino]nicotinamide] | – | > 20 | < 0.5
CC1(C)CN(C(=O)C2CCCO2)Cc2cc(NC(=O)c3cccnc3NCc3ccnc4[nH]ccc34)ccc21 (single isomer, unassigned) [Example 14, N-{4,4-Dimethyl-2-[(2R*)-tetrahydrofuran-2-ylcarbonyl]-1,2,3,4-tetrahydroisoquinolin-7-yl}-2-[(1H-pyrrolo[2,3-b]pyridin-4-ylmethyl)amino]nicotinamide] | – | > 20 | < 0.5
CC1(C)CC(=O)Nc2cc(NC(=O)c3cccnc3NCc3ccnc4[nH]ccc34)ccc21 [Example 12, N-(4,4-Dimethyl-2-oxo-1,2,3,4-tetrahydroquinolin-7-yl)-2-[(1H-pyrrolo[2,3-b]pyridin-4-ylmethyl)amino]nicotinamide] | – | > 20 | < 0.5
CC(=O)N1Cc2cc(NC(=O)c3cccnc3NCc3ccnc4[nH]ccc34)ccc2C(C)(C)C1 [Example 13, N-(2-Acetyl-4,4-dimethyl-1,2,3,4-tetrahydroisoquinolin-7-yl)-2-[(1H-pyrrolo[2,3-b]pyridin-4-ylmethyl)amino]nicotinamide] | – | > 20 | < 0.5
CC(=O)N1CC(C)(C)c2ccc(NC(=O)c3cccnc3NCc3ccnc4c3CCN4)cc21 [Example 29, N-(1-Acetyl-3,3-dimethyl-2,3-dihydro-1H-indol-6-yl)-2-[(2,3-dihydro-1H-pyrrolo[2,3-b]pyridin-4-ylmethyl)amino]nicotinamide] | – | > 20 | < 0.5

Second part, led by results:

IC50 (CYP 3A4) [µM] | IC50 (CYP 2D6) [µM] | Compound | IC50 [1] [µM]
> 20 | – | O=C(Nc1ccc(Br)cc1)c1cc(F)cnc1NCc1ccnc2[nH]ccc12 [Example 89, N-(4-bromophenyl)-5-fluoro-2-((1H-pyrrolo[2,3-b]pyridin-4-ylmethyl)amino)-3-pyridinecarboxamide] | < 0.5
> 20 | – | O=C(Nc1cccc(C(F)(F)F)c1)c1cc(F)cnc1NCc1ccnc2[nH]ccc12 [Example 98, 5-fluoro-2-((1H-pyrrolo[2,3-b]pyridin-4-ylmethyl)amino)-N-(3-(trifluoromethyl)phenyl)-3-pyridinecarboxamide] | < 0.5
– | > 20 | CC(=O)N1CC(C)(C)c2ccc(NC(=O)c3cc(F)cnc3NCc3ccnc4[nH]ccc34)cc21 [Example 80, N-(1-acetyl-3,3-dimethyl-2,3-dihydro-1H-indol-6-yl)-5-fluoro-2-((1H-pyrrolo[2,3-b]pyridin-4-ylmethyl)amino)-3-pyridinecarboxamide] | < 0.5
> 20 | – | CC(C)Oc1ccc(NC(=O)c2cc(F)cnc2NCc2ccnc3[nH]ccc23)cc1 [Example 95, 5-fluoro-N-(4-((1-methylethyl)oxy)phenyl)-2-((1H-pyrrolo[2,3-b]pyridin-4-ylmethyl)amino)-3-pyridinecarboxamide] | –
– | > 20 | CC1(C)CCNc2cc(NC(=O)c3cc(F)cnc3NCc3ccnc4[nH]ccc34)ccc21 [Example 82, N-(4,4-dimethyl-1,2,3,4-tetrahydro-7-quinolinyl)-5-fluoro-2-((1H-pyrrolo[2,3-b]pyridin-4-ylmethyl)amino)-3-pyridinecarboxamide] | < 0.5
